# pIC50: −log10 of the molar value.
# Tests used:
# [1] = target: Synaptic vesicular amine transporter (Homo sapiens, UniProt Q05940); experiment: Selectivity interaction (Enzyme and Receptor panel (MSD Pharma/Taiwan)) EUB0000750a SLC18A2
# [2] = target: Inhibitor of nuclear factor kappa-B kinase subunit epsilon (Homo sapiens) (UniProt Q14164); experiment: Selectivity interaction (KinomeScan (DiscoverX)) EUB0000750a IKBKE; conditions: at 1 µM
# [3] = target: Epidermal growth factor receptor (Homo sapiens, UniProt P00533); experiment: Selectivity interaction (KinomeScan (DiscoverX)) EUB0000750a EGFR; conditions: at 1 µM
# Chain of Epidermal growth factor receptor (P00533 whole entry): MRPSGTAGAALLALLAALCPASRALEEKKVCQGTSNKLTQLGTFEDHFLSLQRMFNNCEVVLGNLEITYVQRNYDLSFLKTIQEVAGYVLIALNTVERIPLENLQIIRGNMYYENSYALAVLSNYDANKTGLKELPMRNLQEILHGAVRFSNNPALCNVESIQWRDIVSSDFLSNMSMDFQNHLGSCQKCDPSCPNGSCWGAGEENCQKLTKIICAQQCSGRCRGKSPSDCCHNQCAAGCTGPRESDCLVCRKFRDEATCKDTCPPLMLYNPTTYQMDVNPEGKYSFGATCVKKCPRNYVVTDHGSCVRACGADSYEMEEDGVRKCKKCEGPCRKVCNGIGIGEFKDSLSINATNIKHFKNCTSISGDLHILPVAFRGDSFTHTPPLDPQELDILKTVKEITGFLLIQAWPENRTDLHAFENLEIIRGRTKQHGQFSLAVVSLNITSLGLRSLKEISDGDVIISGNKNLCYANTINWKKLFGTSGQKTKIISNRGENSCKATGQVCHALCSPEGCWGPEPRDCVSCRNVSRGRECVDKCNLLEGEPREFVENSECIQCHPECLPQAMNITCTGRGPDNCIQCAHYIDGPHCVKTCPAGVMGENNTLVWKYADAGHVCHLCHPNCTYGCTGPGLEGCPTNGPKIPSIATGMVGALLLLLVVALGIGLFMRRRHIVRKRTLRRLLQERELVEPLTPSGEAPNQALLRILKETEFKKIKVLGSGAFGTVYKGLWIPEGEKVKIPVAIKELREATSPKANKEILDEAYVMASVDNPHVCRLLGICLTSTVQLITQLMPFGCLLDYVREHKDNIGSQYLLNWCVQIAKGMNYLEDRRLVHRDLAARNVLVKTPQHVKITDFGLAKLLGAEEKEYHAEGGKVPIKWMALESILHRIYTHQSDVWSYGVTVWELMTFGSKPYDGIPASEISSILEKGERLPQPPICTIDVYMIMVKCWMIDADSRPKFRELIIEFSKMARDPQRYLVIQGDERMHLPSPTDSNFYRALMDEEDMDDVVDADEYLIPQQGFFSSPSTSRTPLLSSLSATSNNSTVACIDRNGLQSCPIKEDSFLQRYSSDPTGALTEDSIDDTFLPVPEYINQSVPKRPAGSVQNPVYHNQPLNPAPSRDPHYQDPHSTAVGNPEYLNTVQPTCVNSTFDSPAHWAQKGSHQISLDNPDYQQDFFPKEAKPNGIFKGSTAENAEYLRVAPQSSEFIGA
# [4] = target: RAC-alpha serine/threonine-protein kinase (Homo sapiens, UniProt P31749); experiment: Selectivity interaction (KinomeScan (DiscoverX)) EUB0000750a AKT1; conditions: at 1 µM
# Chain of RAC-alpha serine/threonine-protein kinase (P31749 whole entry, canonical isoform): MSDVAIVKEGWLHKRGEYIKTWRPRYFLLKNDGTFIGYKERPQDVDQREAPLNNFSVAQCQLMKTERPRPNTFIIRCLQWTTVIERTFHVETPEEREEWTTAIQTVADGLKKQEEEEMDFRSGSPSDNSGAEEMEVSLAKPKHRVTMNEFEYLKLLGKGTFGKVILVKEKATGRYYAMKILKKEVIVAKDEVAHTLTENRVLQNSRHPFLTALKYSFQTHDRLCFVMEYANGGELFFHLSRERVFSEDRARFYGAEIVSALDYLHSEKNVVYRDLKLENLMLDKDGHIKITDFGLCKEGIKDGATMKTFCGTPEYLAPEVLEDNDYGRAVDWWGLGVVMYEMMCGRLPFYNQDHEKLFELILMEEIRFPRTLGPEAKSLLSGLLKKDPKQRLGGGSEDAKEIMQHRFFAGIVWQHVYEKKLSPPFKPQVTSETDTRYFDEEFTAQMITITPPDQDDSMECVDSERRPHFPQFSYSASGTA
# [5] = target: Phosphatidylinositol 4,5-bisphosphate 3-kinase catalytic subunit alpha isoform (Homo sapiens, UniProt P42336); experiment: Selectivity interaction (KinomeScan (DiscoverX)) EUB0000750a PIK3CA; conditions: at 1 µM
# Chain of Phosphatidylinositol 4,5-bisphosphate 3-kinase catalytic subunit alpha isoform (P42336 whole entry, canonical isoform): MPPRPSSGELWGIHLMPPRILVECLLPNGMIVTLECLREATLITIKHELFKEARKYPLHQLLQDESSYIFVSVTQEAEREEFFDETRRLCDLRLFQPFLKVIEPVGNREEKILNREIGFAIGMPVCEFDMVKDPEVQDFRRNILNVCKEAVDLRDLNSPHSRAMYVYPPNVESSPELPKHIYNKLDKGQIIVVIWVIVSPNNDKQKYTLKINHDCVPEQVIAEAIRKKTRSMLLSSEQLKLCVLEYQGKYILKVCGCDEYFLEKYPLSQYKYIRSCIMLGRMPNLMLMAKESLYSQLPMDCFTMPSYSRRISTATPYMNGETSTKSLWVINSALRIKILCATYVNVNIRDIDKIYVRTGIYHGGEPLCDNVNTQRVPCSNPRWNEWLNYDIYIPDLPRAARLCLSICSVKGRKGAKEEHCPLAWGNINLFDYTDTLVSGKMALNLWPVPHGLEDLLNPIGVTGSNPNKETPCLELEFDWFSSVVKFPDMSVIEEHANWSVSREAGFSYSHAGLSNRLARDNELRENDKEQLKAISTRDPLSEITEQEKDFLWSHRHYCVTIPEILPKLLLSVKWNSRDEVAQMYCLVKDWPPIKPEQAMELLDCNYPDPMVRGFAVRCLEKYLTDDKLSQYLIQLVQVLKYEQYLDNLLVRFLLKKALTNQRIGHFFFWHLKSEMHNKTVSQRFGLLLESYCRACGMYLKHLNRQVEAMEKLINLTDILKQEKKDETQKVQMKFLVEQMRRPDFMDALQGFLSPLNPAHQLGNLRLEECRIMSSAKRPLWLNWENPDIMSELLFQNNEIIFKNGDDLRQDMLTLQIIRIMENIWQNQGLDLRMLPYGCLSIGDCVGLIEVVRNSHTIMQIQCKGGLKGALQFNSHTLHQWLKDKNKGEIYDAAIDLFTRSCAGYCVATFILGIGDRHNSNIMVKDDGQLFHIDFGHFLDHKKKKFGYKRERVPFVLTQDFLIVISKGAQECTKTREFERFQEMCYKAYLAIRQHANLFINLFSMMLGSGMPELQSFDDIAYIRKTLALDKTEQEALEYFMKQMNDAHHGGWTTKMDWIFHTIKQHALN
# [6] = target: Citron Rho-interacting kinase (Homo sapiens) (UniProt O14578); experiment: Selectivity interaction (KinomeScan (DiscoverX)) EUB0000750a CIT; conditions: at 1 µM
# [7] = target: T1, Serine/threonine-protein kinase LATS2 (Homo sapiens) (UniProt Q9NRM7); experiment: Selectivity interaction (KinomeScan (DiscoverX)) EUB0000750a LATS2; conditions: at 1 µM
# T1 sequence (whole entry): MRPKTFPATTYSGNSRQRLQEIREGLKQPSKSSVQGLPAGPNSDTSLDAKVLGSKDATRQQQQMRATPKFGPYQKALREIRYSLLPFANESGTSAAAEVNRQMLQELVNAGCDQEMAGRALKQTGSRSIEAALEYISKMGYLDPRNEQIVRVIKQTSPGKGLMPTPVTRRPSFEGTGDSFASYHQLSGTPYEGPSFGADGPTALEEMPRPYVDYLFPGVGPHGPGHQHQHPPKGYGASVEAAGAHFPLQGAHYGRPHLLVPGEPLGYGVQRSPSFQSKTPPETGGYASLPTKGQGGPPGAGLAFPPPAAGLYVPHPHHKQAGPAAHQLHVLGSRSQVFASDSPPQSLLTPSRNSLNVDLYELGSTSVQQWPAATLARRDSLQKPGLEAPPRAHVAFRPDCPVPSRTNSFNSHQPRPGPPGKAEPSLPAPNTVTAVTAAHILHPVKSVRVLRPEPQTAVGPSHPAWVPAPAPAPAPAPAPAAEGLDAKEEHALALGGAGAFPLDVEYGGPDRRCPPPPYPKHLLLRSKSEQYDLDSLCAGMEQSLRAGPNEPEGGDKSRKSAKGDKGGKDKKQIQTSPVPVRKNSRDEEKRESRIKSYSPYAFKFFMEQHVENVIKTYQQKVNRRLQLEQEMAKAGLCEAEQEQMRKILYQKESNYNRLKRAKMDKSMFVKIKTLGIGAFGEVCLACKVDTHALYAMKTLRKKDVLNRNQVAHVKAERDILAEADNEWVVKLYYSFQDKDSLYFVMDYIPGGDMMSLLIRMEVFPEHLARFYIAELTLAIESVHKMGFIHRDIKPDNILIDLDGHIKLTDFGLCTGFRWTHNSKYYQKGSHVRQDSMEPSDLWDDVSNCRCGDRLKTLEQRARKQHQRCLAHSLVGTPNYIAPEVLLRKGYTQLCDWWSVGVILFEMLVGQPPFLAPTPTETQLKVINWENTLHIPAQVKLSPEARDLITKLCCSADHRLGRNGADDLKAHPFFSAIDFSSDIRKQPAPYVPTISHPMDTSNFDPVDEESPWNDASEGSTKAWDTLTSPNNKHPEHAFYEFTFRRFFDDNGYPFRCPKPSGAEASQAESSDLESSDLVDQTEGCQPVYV
# Chain of Synaptic vesicular amine transporter (Q05940 whole entry): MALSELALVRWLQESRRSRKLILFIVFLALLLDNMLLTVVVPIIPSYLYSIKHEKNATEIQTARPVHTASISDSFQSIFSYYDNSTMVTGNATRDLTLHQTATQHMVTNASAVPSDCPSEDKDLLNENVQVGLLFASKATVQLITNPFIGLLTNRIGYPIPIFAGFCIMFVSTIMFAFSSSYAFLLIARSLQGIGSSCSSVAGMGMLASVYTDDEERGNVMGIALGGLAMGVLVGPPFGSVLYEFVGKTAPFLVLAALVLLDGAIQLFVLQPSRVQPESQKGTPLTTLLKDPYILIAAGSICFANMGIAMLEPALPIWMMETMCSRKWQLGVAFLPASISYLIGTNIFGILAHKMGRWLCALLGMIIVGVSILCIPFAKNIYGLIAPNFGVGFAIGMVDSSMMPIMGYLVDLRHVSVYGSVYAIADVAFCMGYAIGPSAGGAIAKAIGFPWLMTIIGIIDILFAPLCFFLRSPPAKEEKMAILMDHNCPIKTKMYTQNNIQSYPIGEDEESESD
# Chain of Inhibitor of nuclear factor kappa-B kinase subunit epsilon (Homo sapiens) (Q14164 whole entry): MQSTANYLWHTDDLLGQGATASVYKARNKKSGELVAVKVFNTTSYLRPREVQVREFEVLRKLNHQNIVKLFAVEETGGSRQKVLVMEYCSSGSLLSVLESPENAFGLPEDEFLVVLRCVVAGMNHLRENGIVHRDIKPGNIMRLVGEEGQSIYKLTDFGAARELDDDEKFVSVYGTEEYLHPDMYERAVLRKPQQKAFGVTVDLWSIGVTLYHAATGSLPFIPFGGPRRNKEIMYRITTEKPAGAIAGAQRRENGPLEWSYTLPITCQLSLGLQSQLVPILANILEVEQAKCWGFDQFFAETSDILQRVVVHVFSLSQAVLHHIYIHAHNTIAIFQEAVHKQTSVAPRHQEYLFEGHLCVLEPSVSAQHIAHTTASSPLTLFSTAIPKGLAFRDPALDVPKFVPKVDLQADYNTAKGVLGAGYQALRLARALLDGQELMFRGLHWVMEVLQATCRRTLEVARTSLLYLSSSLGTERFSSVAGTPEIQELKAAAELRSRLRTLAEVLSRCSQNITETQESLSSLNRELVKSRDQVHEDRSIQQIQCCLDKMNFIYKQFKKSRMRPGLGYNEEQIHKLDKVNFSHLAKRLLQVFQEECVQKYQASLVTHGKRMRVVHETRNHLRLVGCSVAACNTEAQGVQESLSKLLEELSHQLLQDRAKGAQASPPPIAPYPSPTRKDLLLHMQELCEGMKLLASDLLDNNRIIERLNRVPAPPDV
compound,measurement,setting,value
O=S(=O)(NC1CCC(c2cc(F)ccc2F)(S(=O)(=O)c2ccc(Cl)cc2)CC1)C(F)(F)F (configuration not stated) [MRK-560],pIC50,[1],6.67
same,% of control,[2],0%
same,% of control,[3],0%
same,% of control,[4],5%
same,% of control,[5],36%
same,% of control,[6],0%
same,% of control,[7],0%

# Reference: ChEMBL document CHEMBL5212743, “Selectivity Literature for EUbOPEN Chemogenomics Library wave 3” (2023)
